Where two headings read alike, the source gives them in different places. Marks after values point to notes of the source that are not given here.

One series has as its system A2058 melanoma cell line. Briefly: Effect of anti-melanoma chemotherapy on viability (IC50) of in vitro growing A2058. It counts as cell-based, human. As to the method:
(§1) Human A2058, MeWo and MelJuso melanoma cells, and mouse AtT-20 pituitary corticotroph tumor cells were from the American Type Culture Collection (ATCC). Human HEMa-LP epidermal melanocytes were from Life Technologies (Grand Island, N.Y.). […] Cells were grown in Dulbecco's modified Eagle's medium (DMEM) (Invitrogen, San Diego, Calif.), pH 7.4, supplemented with 10% heat-inactivated FCS (Biochrom KG, Berlin, Germany), 100 units/ml penicillin and 100 μg/ml streptomycin. Cells were plated, at a density of 20,000 cells/cm2, and cultured at 37° C. in a humidified atmosphere with 5% CO2. […] Cell numbers were determined using a Coulter Counter (Coulter Electronic Inc., Miami, Fla.). Cells were allowed to attach for 12 h before any treatment addition.

Another series deals with MeWo melanoma cell line. Briefly: Effect of anti-melanoma chemotherapy on viability (IC50) of in vitro growing MeWo. Type of series: cell-based, human. On the procedure:
as §1

Series [1] relates to MelJuso melanoma cell line. Briefly: Effect of anti-melanoma chemotherapy on viability (IC50) of in vitro growing MelJuso. It counts as cell-based, human. As to the method:
as §1

Another series has as its system A2058 melanoma. As to the kind of experiment: In vivo growth of A2058 melanoma xenografts in nu/nu mice. Also on record: species or system human. The conditions noted are these: A2058-RFP; day 35; EGCG or Curc 50 mg/kg i.v. every 48 h, ± CRC.
Series [2] has as its system glucocorticoid receptors (GR). Briefly: GR content of human cancer cells by [3H]-labeled ligand whole-cell binding assay. The conditions noted are these: A2058-RFP tumors; day 35; EGCG or Curc 50 mg/kg, ± CRC.
The next series concerns corticosterone. As to the kind of experiment: Plasma corticosterone levels (ELISA) in tumor-bearing mice. Type of series: in vivo. Particulars: A2058-bearing mice; day 35; 12 h circadian time; EGCG or Curc 50 mg/kg, ± CRC. The text has this:
(§2) Measurement of ACTH, Corticosterone, and NORA Levels.
(§3) Plasma levels of ACTH (Calbiotech, Inc., Spring Valley, Calif.), corticosterone (Kamiyama Biomedical Co., Seattle, Wash.), and NORA (IBL, Hamburg, Germany) were quantified by ELISA according to the instructions of the suppliers.
For orientation: An ELISA detects its analyte on a solid surface through an enzyme-linked reagent.

In a further series the test system is ACTH. As to the kind of experiment: Plasma ACTH levels (ELISA) in tumor-bearing mice. Type of series: in vivo. Particulars: A2058-bearing mice; day 35; 6 h circadian time; EGCG or Curc 50 mg/kg, ± CRC.
Text: as §2, §3

The conditions of series [3]: for deaths in the treated groups: 50 mg/kg i.v. every 48 h. As to the method: FIG. 12. Effect of (−)-epigallocatechin-3-gallate (EGCG) or curcumin (Curc) treatment on (A) human melanoma (A2058) and (B) pancreatic cancer (AsPC-1) growth in vivo. EGCG or Curc were administered i.v. every 48 h for a period of 5 weeks, starting 1 week after tumor cell inoculation. For this purpose EGCG was dissolved in physiological saline, whereas Curc was dissolved in DMSO.

In series [4] the test system is AtT-20 pituitary corticotroph tumor cells. Briefly: ACTH production and POMC expression in AtT-20 cells. The conditions noted are these: results not shown. Type of series: cell-based, mouse. As to the method:
FIG. 3. Pterostilbene bioavailability in brain and the pituitary gland, and its effect on ACTH synthesis and POMC expression in AtT-20 cells. […] (B) Effect of pterostilbene on ACTH production by AtT-20 cells in a 24 h-period (measured between 24-48 h or between 48-72 h). […] After the 30 min period, culture flasks were washed out (three times with PBS) and the medium was renewed (controls received identical treatment).
as §3
RT-PCR and detection of mRNA was performed as described above. For Western blotting (see also above) POMC mouse monoclonal antibody (clone 2B2) from Origen (Rockville, Md.) were used.

The subject of series [5] is A2058 cells isolated from tumor-bearing mice. Briefly: Chemosensitization of cultured A2058 cells isolated from xenografts. Particulars: isolated A2058 cells without in vivo Pter treatment. It counts as cell-based, human. As to the method: FIG. 5. Chemosensitization effect of GSH depletion (A) or sod1-AS (B) in melanoma cells isolated from Pter-treated mice. Melanoma cells were cultured as in FIG. 1C. PAC.PBP (100 ng/ml) was added to the culture flasks 24 h after seeding. […] Data are mean values±SD for 5-6 different experiments (*p<0.01, comparing all experimental conditions vs controls).
FIGS. 18-25. Effect of piperlongumine and I-BET762, as GSH depleting and chemosensitizing agents, in in vitro growing human melanoma, pancreatic, breast, lung, liver, prostate, ovarian, and colorectal cancer cells. Cancer cells, isolated from Pter-treated tumor-bearing mice, were cultured as indicated under Methods. Chemotherapy (0.25 μM PAC.PBP in A2058 melanoma and MDA-MB-231 breast carcinoma cells; 0.125 μM PAC.PBP and 25 μM GTB in AsPC-1 pancreatic cancer cells; 1 μM VRB and 15 μM cisPt in A459 lung carcinoma cells; 0.15 μM DXR in HepG2 hepatocellular carcinoma cells; 15 nM DCT in PC-3 prostate carcinoma cells; 0.15 μM PAC.PBP and 25 μM CarboPt in SK-OV-3 ovarian carcinoma cells; 3 μM 5-FU, 1 μM FA and 0.6 μM IRI in HT-29 colorectal carcinoma cells) was added to the cultured flasks 24 h after seeding. PL (1 μM in A2058 and AsPC-1 cells; 0.5 μM in A549 and HT-29 cells; 0.2 μM in HepG2, PC-3, and SK-OV-3 cells; 0.1 μM in MDA-MB-231 cells) or I-BET762 (0.5 μM in HT-29 cells; 0.2 μM in A2058, AsPC-1, HepG2, PC-3, and SK-OV-3 cells; 0.1 μM in A549 and MDA-MB-231 cells) were added 6 h later. Data are mean values±SD for 4-5 different experiments per cell line (*p<0.05 and **p<0.01, comparing all experimental conditions versus control. PL, piperlongumine; PAC.PBP, paclitaxel protein-bound particles; GTB, gemcitabine; DXR, doxorubicin; VRB, vinorelbin; CisPt, cisplatin; docetaxel, DCT; CarboPt, carboplatin; 5-FU, 5-fluoracil; FA, folinic acid; IRI, irinotecan; 5-FU+FA+IRI=FOLFIRI).
Human A2058, MeWo and MelJuso melanoma cells, and mouse AtT-20 pituitary corticotroph tumor cells were from the American Type Culture Collection (ATCC). Human HEMa-LP epidermal melanocytes were from Life Technologies (Grand Island, N.Y.). Human MDA-MB-231 (triple negative: ER−, PR−, HER2−) and MCF-7 (ER+, PR+, HER2−) breast adenocarcinoma, A549 lung adenocarcinoma (NSCLC), HepG2 hepatocellular carcinoma, LNCaP (AR+) and PC-3 (AR−) prostate adenocarcinoma, SK-OV-3 epithelial ovarian carcinoma, and HT-29 and Caco-2 colorectal carcinoma cells were from the American Type Culture Collection. Cells were grown in Dulbecco's modified Eagle's medium (DMEM) (Invitrogen, San Diego, Calif.), pH 7.4, supplemented with 10% heat-inactivated FCS (Biochrom KG, Berlin, Germany), 100 units/ml penicillin and 100 μg/ml streptomycin. Cells were plated, at a density of 20,000 cells/cm2, and cultured at 37° C. in a humidified atmosphere with 5% CO2. Cells were harvested by incubation for 5 min with 0.05% (w/v) trypsin (Sigma, St. Louis, Mo.) in PBS (10 mM sodium phosphate, 4 mM KCl, 137 mM NaCl), pH 7.4, containing 0.3 mM EDTA, followed by the addition of 10% FCS to inactivate the trypsin. Cell numbers were determined using a Coulter Counter (Coulter Electronic Inc., Miami, Fla.). Cells were allowed to attach for 12 h before any treatment addition. Cellular viability was assessed as previously reported (Mena, S. et al. Clin Cancer Res 13, 2658-2666 (2007)), by measuring trypan blue exclusion and leakage of lactate dehydrogenase activity.
Isolation of Tumor Cells from Mouse Xenografts Using Enzymatic Digestion and a double Ficoll gradient. […]
On the technique in general: In xenograft studies the graft and the host belong to different species.

Take `CN(Cc1cnc2nc(N)nc(N)c2n1)c1ccc(C(=O)N[C@@H](CCC(=O)O)C(=O)O)cc1` [Methotrexate]: the half-inhibitory concentration (IC50) (in general, the point on the concentration scale where inhibition reaches its midpoint) with A2058 melanoma cell line (Homo sapiens) was greater than 100 µM; with MeWo melanoma cell line (Homo sapiens), greater than 100 µM; in series [1] (Homo sapiens, MEL-JUSO), 1.35 ± 0.34 µM.
For `CN(C)/N=N/c1[nH]cnc1C(N)=O` [Dacarbazine], the IC50 with A2058 melanoma cell line (Homo sapiens) is greater than 100 µM; in the series on MeWo melanoma cell line (Homo sapiens) it was greater than 100 µM; in series [1] (Homo sapiens, MEL-JUSO) it was 56.7 ± 7.46 µM.
For `N.N.[Cl][Pt][Cl]` [Cisplatin], the IC50 in the series on A2058 melanoma cell line is greater than 100 µM; in the series with MeWo melanoma cell line, 44.3 ± 5.43 µM; in series [1], 11.2 ± 1.77 µM.
The like results for Arsenate were, in that order, greater than 100 µM, 94.4 ± 12.4 µM and 65.5 ± 5.19 µM.
In the case of `COc1cc(/C=C/C(=O)CC(=O)/C=C/c2ccc(O)c(OC)c2)ccc1O` [Curc, curcumin, reference compound], the Tumor vol. in the series with A2058 melanoma is 606 ± 126* mm^3. In series [2], the GR number was 71 ± 12 10^3 GR/cell. In the series with corticosterone, the CRC was found to be 161 ± 17 ng/mL plasma. In the series on ACTH, this compound gave an ACTH of 113 ± 25 pg/mL plasma. In addition, in series [3], the “deaths in the treated groups” value is given as “did not cause deaths”.
As for `CC(=O)O[C@H]1C(=O)[C@@]2(C)[C@H]([C@H](OC(=O)c3ccccc3)[C@]3(O)C[C@H](OC(=O)[C@H](O)[C@@H](NC(=O)c4ccccc4)c4ccccc4)C(C)=C1C3(C)C)[C@]1(OC(C)=O)CO[C@@H]1C[C@@H]2O` [Paclitaxel, (2α,4α,5β,7β,10β,13α)-4,10-Bis(acetyloxy)-13-{[(2R,3S)-3-(benzoylamino)-2-hydroxy-3-phenylpropanoyl]oxy}-1,7-dihydroxy-9-oxo-5,20-epoxytax-11-en-2-yl benzoate], the IC50 was found to be 0.35 ± 0.1 µM in the series with A2058 melanoma cell line (Homo sapiens); 11.1 ± 2.15 µM with MeWo melanoma cell line (Homo sapiens); 0.13 ± 0.03 µM in series [1] (Homo sapiens, MEL-JUSO).
In turn, `O=C(O[C@@H]1Cc2c(O)cc(O)cc2O[C@@H]1c1cc(O)c(O)c(O)c1)c1cc(O)c(O)c(O)c1` [EGCG, (−)-epigallocatechin-3-gallate, reference compound] yielded a Tumor vol. in the series on A2058 melanoma of 894 ± 137 mm^3. The GR number in series [2] is given as 77 ± 7 10^3 GR/cell. The compound further returned a CRC with corticosterone of 243 ± 31 ng/mL plasma. Moreover, the ACTH in the series on ACTH amounted to 215 ± 36 pg/mL plasma. For the same compound, in [3], the “deaths in the treated groups” value is “did not cause deaths”. The “deaths in the tumor-bearing groups” value in series [3] (60 mg/kg i.v. every 48 h) is given as 45%.
On to `COc1cc(C=Cc2ccc(OS(=O)(=O)O)cc2)cc(OC)c1` [Pter-S, pterostilbene-4′-sulfate], for which, in series [4], the “decrease of ACTH production in AtT-20 cells by pterostilbene conjugates” value is recorded as “None”.
Turning to `O=NN(CCCl)C(=O)NCCCl` [BCNU, Carmustine], the IC50 in the series with A2058 melanoma cell line (Homo sapiens) is greater than 100 µM; in the series on MeWo melanoma cell line (Homo sapiens), greater than 100 µM; in series [1] (Homo sapiens, MEL-JUSO), 0.17 ± 0.06 µM.
With Diethylmaleate [DEM], the Cell number is given as 0.49 ± 0.10 ×10^6 in [5] (culture time 24 h), 0.51 ± 0.05 ×10^6 in [5] (culture time 36 h), 0.56 ± 0.08 ×10^6 in series [5] (culture time 48 h) and 0.67 ± 0.06* ×10^6 in series [5] (culture time 72 h).
As for `COc1cccc2c1C(=O)c1c(O)c3c(c(O)c1C2=O)C[C@@](O)(C(C)=O)C[C@@H]3O[C@H]1C[C@H](N)[C@H](O)[C@H](C)O1` [Daunorubicin], the IC50 in the series on A2058 melanoma cell line (Homo sapiens) is 2.4 ± 0.73 µM; in the series on MeWo melanoma cell line (Homo sapiens) it was 2.61 ± 0.51 µM; in series [1] (Homo sapiens, MEL-JUSO) it was 1.44 ± 0.35 µM.
In the case of `COc1cc(C=Cc2ccc(OC3OC(C(=O)O)C(O)C(O)C3O)cc2)cc(OC)c1` [Pter-G, Pterostilbene 4′-O-D-glucuronide], the “decrease of ACTH production in AtT-20 cells by pterostilbene conjugates” value in series [4] was “None”.
Consider `CC[C@]1(O)C[C@@H]2CN(CCc3c([nH]c4ccccc34)[C@@](C(=O)OC)(c3cc4c(cc3OC)N(C)[C@H]3[C@@](O)(C(=O)OC)[C@H](OC(C)=O)[C@]5(CC)C=CCN6CC[C@]43[C@@H]65)C2)C1` [Vinblastine], for which the concentration for half-maximal inhibition (IC50) with A2058 melanoma cell line (Homo sapiens) came out at 7.65 ± 1.35 µM; with MeWo melanoma cell line (Homo sapiens), 14.5 ± 2.17 µM; in series [1] (Homo sapiens, MEL-JUSO) it was 0.19 ± 0.04 µM.
The like results for `Cn1nnc2c(C(N)=O)ncn2c1=O` [Temozolomide] were, in that order, greater than 100 µM, greater than 100 µM and greater than 100 µM.
The like results for `CC[C@]1(O)C[C@H]2CN(CCc3c([nH]c4ccccc34)[C@@](C(=O)OC)(c3cc4c(cc3OC)N(C=O)[C@H]3[C@@](O)(C(=O)OC)[C@H](OC(C)=O)[C@]5(CC)C=CCN6CC[C@]43[C@@H]65)C2)C1` [Vincristine] were, in that order, 6.19 ± 2.06 µM, 12.5 ± 3.04 µM and 0.15 ± 0.02 µM.
The corresponding values for `CCCC(CCC)C(=O)O` [Valproic acid] are greater than 100 µM, greater than 100 µM and 66.2 ± 6.39 µM.

These data come from patent publication US11179348B2, “Combination comprising pterostilbene for the treatment of cancer” (FUNDACIÓN UNIVERSIDAD CATÓLICA DE VALENCIA SAN VICENTE …, priority 2015, dated 2021).
